Among the data in patent publication US20230143612A1 (Arbutus Biopharma Corporation, priority 2020, published 2023) are IC50 values, retold here.

Structures are written as SMILES.

The experiment deals with PD-L1 His protein / PD-1 Fc protein (Homo sapiens, UniProt Q9NZQ7). In words: HTRF Assay (PD-1/PD-L1 interaction). Type of experiment: binding. To be noted: PD-L1 His 6 nM, PD-1 Fc 6 nM. In outline: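 HTRF: PD-L1 His (6 nM final), compound (3-fold dilutions, 20 μM to 0.001 μM final) and PD-1 Fc (6 nM final) preincubated 15 min at room temperature. Anti-human IgG-XL665 and anti-6HIS Tb cryptate (mixed at 6.7 nM and 0.35 nM) then added for 1 h at room temperature before reading.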
Sequence of PD-L1 His protein / PD-1 Fc protein (Q9NZQ7 19-238 limits assumed): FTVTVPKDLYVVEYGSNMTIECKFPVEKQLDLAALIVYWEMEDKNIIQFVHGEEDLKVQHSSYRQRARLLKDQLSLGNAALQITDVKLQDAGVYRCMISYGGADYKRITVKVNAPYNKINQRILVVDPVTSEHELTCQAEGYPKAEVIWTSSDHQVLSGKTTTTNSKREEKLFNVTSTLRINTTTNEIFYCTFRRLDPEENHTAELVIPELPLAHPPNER
For orientation: TR-FRET usually uses a lanthanide donor and a delayed reading to cut background.
Consider `Cc1c(COc2cc(OCc3cncc(C#N)c3)c(CNCCO)cc2Cl)cccc1-c1cccc(-c2ccc3c(c2)N(C)C(=O)CCC3NCCO)c1C` (centres unmarked) [Example 22, 5-((4-Chloro-5-((3′-(5-((2-hydroxyethyl)amino)-1-methyl-2-oxo-2,3,4,5-tetrahydro-1H-benzo[b]azepin-8-yl)-2,2′-dimethyl-[1,1′-biphenyl]-3-yl)methoxy)-2-(((2-hydroxyethyl)amino)methyl)phenoxy)methyl)nicotinonitrile], for which the IC50 – broadly, the concentration at which inhibition is half-maximal – came to 6 nM.

Regarding `Cc1c(COc2cc(OCc3cncc(C#N)c3)c(CNCCO)cc2Cl)cccc1-c1cccc(-n2ccc(CNCCO)cc2=O)c1C` [Example 23, 5-((4-Chloro-2-(((2-hydroxyethyl)amino)methyl)-5-((3′-(4-(((2-hydroxyethyl)amino)methyl)-2-oxopyridin-1(2H)-yl)-2,2′-dimethyl-[1,1′-biphenyl]-3-yl)methoxy)phenoxy)methyl)nicotinonitrile], the IC50 turned out to be 33 nM.

The molecule `Cc1c(COc2cc(OCc3cncc(C#N)c3)c(CNC[C@@H]3CCC(=O)N3)cc2Cl)cccc1-c1cccc(-c2ccn3c(=O)c(CNC[C@@H]4CCC(=O)N4)ccc3c2)c1C` [Example 24, 5-((4-Chloro-5-((2,2′-dimethyl-3′-(4-oxo-3-(((((S)-5-oxopyrrolidin-2-yl)methyl)amino)methyl)-4H-quinolizin-8-yl)-[1,1′-biphenyl]-3-yl)methoxy)-2-(((((S)-5-oxopyrrolidin-2-yl)methyl)amino)methyl)phenoxy)methyl)nicotinonitrile] returned an IC50 of 0.5 nM.

On to `Cc1c(COc2cc(OCc3cncc(C#N)c3)c(CNCCO)cc2Cl)cccc1-c1cccc(-c2ccn3c(=O)c(CNCCO)cnc3c2)c1C#N` [Example 25, 5-((4-Chloro-5-((2′-cyano-3′-(3-(((2-hydroxyethyl)amino)methyl)-4-oxo-4H-pyrido[1,2-a]pyrimidin-8-yl)-2-methyl-[1,1′-biphenyl]-3-yl)methoxy)-2-(((2-hydroxyethyl)amino)methyl)phenoxy)methyl)nicotinonitrile], for which the IC50 was determined as 0.3 nM.

In turn, `Cc1c(COc2cc(OCc3cncc(C#N)c3)c(CN3CC(CO)C3)cc2Cl)cccc1-c1cccc(-c2ccc3c(c2)C(=O)N(C)CC(=O)N3CCN2CC(CO)C2)c1C` [Example 26, 5-((4-Chloro-5-((3′-(1-(2-(3-(hydroxymethyl)azetidin-1-yl)ethyl)-4-methyl-2,5-dioxo-2,3,4,5-tetrahydro-1H-benzo[e][1,4]diazepin-7-yl)-2,2′-dimethyl-[1,1′-biphenyl]-3-yl)methoxy)-2-((3-(hydroxymethyl)azetidin-1-yl)methyl)phenoxy)methyl)nicotinonitrile] returned an IC50 of 0.7 nM.

Molecule `Cc1c(OCc2cc(OCc3cncc(C#N)c3)c(CNC[C@@H]3CCC(=O)N3)cc2Cl)cccc1-c1cccc(-c2ccc3c(c2)C(=O)N(C)CC(=O)N3CCNC[C@@H]2CCC(=O)N2)c1C` [Example 27, 5-((4-Chloro-5-(((2,2′-dimethyl-3′-(4-methyl-2,5-dioxo-1-(2-((((S)-5-oxopyrrolidin-2-yl)methyl)amino)ethyl)-2,3,4,5-tetrahydro-1H-benzo[e][1,4]diazepin-7-yl)-[1,1′-biphenyl]-3-yl)oxy)methyl)-2-(((((S)-5-oxopyrrolidin-2-yl)methyl)amino)methyl)phenoxy)methyl)nicotinonitrile] yielded an IC50 of 9.9 nM. Against the preceding molecule, the IC50 is about 14-fold higher.

As for `Cc1c(COc2cc(OCc3cncc(C#N)c3)c(CNC[C@H]3CCC(=O)N3)cc2Cl)cccc1-c1cccc(-c2ccn3c(=O)c(CNC[C@H]4CCC(=O)N4)ccc3c2)c1C` [Example 28, 5-((4-Chloro-5-((2,2′-dimethyl-3′-(4-oxo-3-(((((R)-5-oxopyrrolidin-2-yl)methyl)amino)methyl)-4H-quinolizin-8-yl)-[1,1′-biphenyl]-3-yl)methoxy)-2-(((((R)-5-oxopyrrolidin-2-yl)methyl)amino)methyl)phenoxy)methyl)nicotinonitrile], the IC50 was 0.7 nM.

In turn, `Cc1c(COc2cc(OCc3cncc(C#N)c3)c(CN3CC(C(=O)O)C3)cc2Cl)cccc1-c1cccc(-c2ccn3c(=O)c(CN4CC(C(=O)O)C4)ccc3c2)c1C` [Example 29, 1-((8-(3′-((4-((3-Carboxyazetidin-1-yl)methyl)-2-chloro-5-((5-cyanopyridin-3-yl)methoxy)phenoxy)methyl)-2,2′-dimethyl-[1,1′-biphenyl]-3-yl)-4-oxo-4H-quinolizin-3-yl)methyl)azetidine-3-carboxylic acid] showed an IC50 of 0.9 nM.

`Cc1c(COc2cc(OCc3cncc(C#N)c3)c(CN3CC[C@H](C(=O)O)C3)cc2Cl)cccc1-c1cccc(-c2ccc3c(c2)C(=O)N(C)CC(=O)N3CCN2CC[C@H](C(=O)O)C2)c1C` [Example 30, (S)-1-(4-((3′-(1-(2-((S)-3-Carboxypyrrolidin-1-yl)ethyl)-4-methyl-2,5-dioxo-2,3,4,5-tetrahydro-1H-benzo[e][1,4]diazepin-7-yl)-2,2′-dimethyl-[1,1′-biphenyl]-3-yl)methoxy)-5-chloro-2-((5-cyanopyridin-3-yl)methoxy)benzyl)pyrrolidine-3-carboxylic acid] displayed an IC50 of 0.3 nM.

In the case of `COc1nc(-c2cccc(-c3cccc(-c4ccn5c(=O)c(CNC[C@@H]6CCC(=O)N6)cnc5c4)c3C)c2C)ccc1CNC[C@@H]1CCC(=O)N1` [Example 31, 8-(3′-(6-Methoxy-5-(((((S)-5-oxopyrrolidin-2-yl)methyl)amino)methyl)pyridin-2-yl)-2,2′-dimethyl-[1,1′-biphenyl]-3-yl)-3-(((((S)-5-oxopyrrolidin-2-yl)methyl)amino)methyl)-4H-pyrido[1,2-a]pyrimidin-4-one], the IC50 was 2.3 nM. This IC50 is about 7.7-fold higher than that of the molecule before.

`COc1nc(-c2cccc(-c3cccc(-c4ccn5c(=O)c(CNC[C@@H]6CCC(=O)N6)cnc5c4)c3C)c2Cl)ccc1CNC[C@@H]1CCC(=O)N1` [Example 32, 8-(2′-Chloro-3′-(6-methoxy-5-(((((S)-5-oxopyrrolidin-2-yl)methyl)amino)methyl)pyridin-2-yl)-2-methyl-[1,1′-biphenyl]-3-yl)-3-(((((S)-5-oxopyrrolidin-2-yl)methyl)amino)methyl)-4H-pyrido[1,2-a]pyrimidin-4-one] yielded an IC50 of 2.3 nM.

Regarding `COc1nc(-c2cccc(-c3cccc(-c4ccn5c(=O)c(CNC[C@@H]6CCC(=O)N6)cnc5c4)c3Cl)c2Cl)ccc1CNC[C@@H]1CCC(=O)N1` [Example 33, 8-(2,2′-Dichloro-3′-(6-methoxy-5-(((((S)-5-oxopyrrolidin-2-yl)methyl)amino)methyl)pyridin-2-yl)-[1,1′-biphenyl]-3-yl)-3-(((((S)-5-oxopyrrolidin-2-yl)methyl)amino)methyl)-4H-pyrido[1,2-a]pyrimidin-4-one], the IC50 was 2.7 nM.

`CNCCCOc1cc(C)c2nc(-c3cccc(-c4cccc(-c5cc(=O)n6cc(OCCCNC)cc(C)c6n5)c4Cl)c3Cl)cc(=O)n2c1` [Example 35, 2,2′-(2,2′-Dichloro-[1,1′-biphenyl]-3,3′-diyl)bis(9-methyl-7-(3-(methylamino)propoxy)-4H-pyrido[1,2-a]pyrimidin-4-one)] registered an IC50 of 350 nM.

In turn, `COc1nc(-c2cccc(-c3cccc(-c4ccn5c(=O)c(CNC[C@@H]6CCC(=O)N6)cnc5c4)c3C)c2Cl)cnc1CNC[C@@H]1CCC(=O)N1` [Example 36, 8-(2′-Chloro-3′-(6-methoxy-5-(((((S)-5-oxopyrrolidin-2-yl)methyl)amino)methyl)pyrazin-2-yl)-2-methyl-[1,1′-biphenyl]-3-yl)-3-(((((S)-5-oxopyrrolidin-2-yl)methyl)amino)methyl)-4H-pyrido[1,2-a]pyrimidin-4-one] came in with an IC50 of 1.5 nM.

`Cc1c(-c2ccn3c(=O)c(CNC[C@@H]4CCC(=O)N4)cnc3c2)cccc1-c1cccc(-c2ccn3c(=O)c(CNC[C@@H]4CCC(=O)N4)cnc3c2)c1C` [Example 37, 8,8′-(2,2′-Dimethyl-[1,1′-biphenyl]-3,3′-diyl)bis(3-(((((S)-5-oxopyrrolidin-2-yl)methyl)amino)methyl)-4H-pyrido[1,2-a]pyrimidin-4-one)]: the IC50 came to 140 nM.

Take `COc1nc(-c2cccc(-c3cccc(-c4cnc(NCCNC(C)=O)c(OC)n4)c3Cl)c2Cl)cnc1NCCNC(C)=O` [Example 38, N,N′-((((2,2′-Dichloro-[1,1′-biphenyl]-3,3′-diyl)bis(3-methoxypyrazine-5,2-diyl))bis(azanediyl))bis(ethane-2,1-diyl))diacetamide]: the IC50 was found to be 20 nM. Against the preceding molecule, the IC50 is about 7-fold lower.

As for `COc1nc(NCCNC(C)=O)cnc1-c1cccc(-c2cccc(-c3ncc(NCCNC(C)=O)nc3OC)c2Cl)c1Cl` [Example 39, N,N′-((((2,2′-Dichloro-[1,1′-biphenyl]-3,3′-diyl)bis(6-methoxypyrazine-5,2-diyl))bis(azanediyl))bis(ethane-2,1-diyl))diacetamide], the IC50 worked out at 1000 nM. Compared with the last molecule, the IC50 is about 50-fold higher.

Consider `CN1CCC(NC[C@@H]2CCC(=O)N2)c2ccc(-c3cccc(-c4cccc(-c5ccc6c(n5)N(C)CCC6NC[C@@H]5CCC(=O)N5)c4Cl)c3Cl)nc21` (stereo partly drawn) [Example 42, (5S,5'S)-5,5′-((((2,2′-Dichloro-[1,1′-biphenyl]-3,3′-diyl)bis(1-methyl-1,2,3,4-tetrahydro-1,8-naphthyridine-7,4-diyl))bis(azanediyl))bis(methylene))bis(pyrrolidin-2-one)], for which inhibition was half-maximal at 2.3 nM (IC50).

`O=C1CC[C@@H](CNC2COc3nc(-c4cccc(-c5cccc(-c6ccc7c(n6)OCC7NC[C@@H]6CCC(=O)N6)c5Cl)c4Cl)ccc32)N1` (stereo partly drawn) [Example 44, (5S,5'S)-5,5′-((((2,2′-Dichloro-[1,1′-biphenyl]-3,3′-diyl)bis(2,3-dihydrofuro[2,3-b]pyridine-6,3-diyl))bis(azanediyl))bis(methylene))bis(pyrrolidin-2-one)] gave an IC50 of 550 nM.

The molecule `COc1nc(-c2cccc(-c3cccc(-c4ccn5c(=O)c(CNC[C@@H]6CCC(=O)N6)cnc5c4)c3Cl)c2Cl)cnc1CNC[C@@H]1CCC(=O)N1` [Example 47, 8-(2,2′-Dichloro-3′-(6-methoxy-5-(((((S)-5-oxopyrrolidin-2-yl)methyl)amino)methyl)pyrazin-2-yl)-[1,1′-biphenyl]-3-yl)-3-(((((S)-5-oxopyrrolidin-2-yl)methyl)amino)methyl)-4H-pyrido[1,2-a]pyrimidin-4-one] came in with an IC50 of 1.4 nM.
